# Measurements from EP4745137A1 (Gluetacs Therapeutics (Shanghai) Co., Ltd., priority 2023, dated 2025).
# How the values were obtained:
# Format in all cases: cell-based
# Details in all cases: 24 hours of compound treatment
# IKZF1 = biological target: T1, IKZF1 (Homo sapiens, UniProt Q13422+Q96SW2); test: Western-blot assay of substrate protein degradation in hPBMCs, IKZF1
# T1 construct: endogenous in cells; host or cells: hPBMCs (Milecell Biotechnologies)
# IKZF2 = biological target: T2, IKZF2 (Homo sapiens, UniProt Q96SW2+Q9UKS7); test: Western-blot assay of substrate protein degradation in hPBMCs, IKZF2
# T2 construct: endogenous in cells; host or cells: hPBMCs (Milecell Biotechnologies)
# GSPT1 = biological target: T3, GSPT1 (Homo sapiens, UniProt P15170+Q96SW2); test: Western-blot assay of substrate protein degradation in hPBMCs, GSPT1
# T3 construct: endogenous in cells; host or cells: hPBMCs (Milecell Biotechnologies)
# CK1α = biological target: T4, CK1α (Homo sapiens, UniProt P48729+Q96SW2); test: Western-blot assay of substrate protein degradation in hPBMCs, CK1α
# T4 construct: endogenous in cells; host or cells: hPBMCs (Milecell Biotechnologies)
# IKZF3 = biological target: T5, IKZF3 (Homo sapiens, UniProt Q96SW2+Q9UKT9); test: Western-blot assay of substrate protein degradation in hPBMCs, IKZF3
# T5 construct: endogenous in cells; host or cells: hPBMCs (Milecell Biotechnologies)
# WEE1 = biological target: T6, WEE1 (Homo sapiens, UniProt P30291+Q96SW2); test: Western-blot assay of substrate protein degradation in hPBMCs, WEE1
# T6 construct: endogenous in cells; host or cells: hPBMCs (Milecell Biotechnologies)
# [1] = 50 nM and 500 nM tested (concentration behind the class not stated)
# [2] = compounds tested at 50 nM and 500 nM (concentration of the table not stated)
# T1 sequence (Q13422 whole entry): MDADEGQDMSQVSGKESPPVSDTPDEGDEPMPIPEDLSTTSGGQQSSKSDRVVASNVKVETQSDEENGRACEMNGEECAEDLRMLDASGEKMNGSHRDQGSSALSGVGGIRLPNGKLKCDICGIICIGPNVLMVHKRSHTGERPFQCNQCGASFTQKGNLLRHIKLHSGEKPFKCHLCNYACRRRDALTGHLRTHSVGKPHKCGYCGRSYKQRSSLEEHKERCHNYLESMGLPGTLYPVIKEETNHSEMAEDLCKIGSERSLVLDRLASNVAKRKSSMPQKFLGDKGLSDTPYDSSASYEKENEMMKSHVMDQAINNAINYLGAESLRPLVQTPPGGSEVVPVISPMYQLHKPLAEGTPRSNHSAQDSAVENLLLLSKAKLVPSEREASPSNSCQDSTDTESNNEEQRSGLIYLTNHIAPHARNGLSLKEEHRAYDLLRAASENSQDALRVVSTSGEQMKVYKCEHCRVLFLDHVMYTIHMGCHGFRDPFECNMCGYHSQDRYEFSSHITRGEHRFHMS
# T1 sequence (Q96SW2 whole entry): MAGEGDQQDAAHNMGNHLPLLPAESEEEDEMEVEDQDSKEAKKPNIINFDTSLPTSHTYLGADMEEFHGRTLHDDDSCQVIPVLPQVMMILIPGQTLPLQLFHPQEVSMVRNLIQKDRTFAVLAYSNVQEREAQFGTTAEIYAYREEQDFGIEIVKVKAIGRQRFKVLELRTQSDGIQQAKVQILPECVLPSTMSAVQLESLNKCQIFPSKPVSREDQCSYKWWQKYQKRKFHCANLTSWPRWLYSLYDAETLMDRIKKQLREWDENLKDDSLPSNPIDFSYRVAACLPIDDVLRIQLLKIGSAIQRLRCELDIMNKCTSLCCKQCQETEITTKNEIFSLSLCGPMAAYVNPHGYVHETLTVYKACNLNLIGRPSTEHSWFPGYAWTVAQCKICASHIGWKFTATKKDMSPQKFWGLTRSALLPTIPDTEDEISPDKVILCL
# T1 sequence (Q16531 whole entry partner): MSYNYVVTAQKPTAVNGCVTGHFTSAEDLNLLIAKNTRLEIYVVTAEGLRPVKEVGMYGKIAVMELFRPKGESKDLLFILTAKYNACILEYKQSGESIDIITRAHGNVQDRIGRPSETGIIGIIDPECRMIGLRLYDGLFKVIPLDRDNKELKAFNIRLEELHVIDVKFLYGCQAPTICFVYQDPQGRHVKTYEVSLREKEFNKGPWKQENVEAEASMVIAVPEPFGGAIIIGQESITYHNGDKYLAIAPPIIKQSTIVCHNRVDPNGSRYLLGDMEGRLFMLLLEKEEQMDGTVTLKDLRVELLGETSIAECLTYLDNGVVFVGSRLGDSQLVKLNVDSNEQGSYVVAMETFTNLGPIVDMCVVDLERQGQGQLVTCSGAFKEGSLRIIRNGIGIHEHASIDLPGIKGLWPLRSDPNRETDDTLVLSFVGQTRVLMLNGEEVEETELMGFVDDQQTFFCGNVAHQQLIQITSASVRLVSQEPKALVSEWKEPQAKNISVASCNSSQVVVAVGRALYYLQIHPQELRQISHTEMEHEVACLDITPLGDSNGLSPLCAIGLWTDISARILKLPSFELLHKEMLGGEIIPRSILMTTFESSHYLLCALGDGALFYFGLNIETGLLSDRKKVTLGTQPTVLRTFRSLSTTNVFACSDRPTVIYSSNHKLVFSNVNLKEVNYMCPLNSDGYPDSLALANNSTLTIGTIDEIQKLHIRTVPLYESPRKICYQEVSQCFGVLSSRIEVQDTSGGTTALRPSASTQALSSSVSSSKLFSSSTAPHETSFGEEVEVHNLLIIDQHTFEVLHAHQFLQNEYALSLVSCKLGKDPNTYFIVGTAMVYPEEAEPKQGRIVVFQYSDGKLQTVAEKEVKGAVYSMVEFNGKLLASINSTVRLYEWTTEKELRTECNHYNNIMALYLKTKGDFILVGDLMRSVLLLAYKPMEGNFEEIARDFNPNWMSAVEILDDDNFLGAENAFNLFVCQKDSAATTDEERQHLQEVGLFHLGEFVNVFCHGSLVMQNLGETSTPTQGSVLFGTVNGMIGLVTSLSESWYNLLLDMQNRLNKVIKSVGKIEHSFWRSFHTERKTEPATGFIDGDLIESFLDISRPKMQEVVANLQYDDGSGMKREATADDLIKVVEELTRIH
# T3 sequence (P15170 whole entry): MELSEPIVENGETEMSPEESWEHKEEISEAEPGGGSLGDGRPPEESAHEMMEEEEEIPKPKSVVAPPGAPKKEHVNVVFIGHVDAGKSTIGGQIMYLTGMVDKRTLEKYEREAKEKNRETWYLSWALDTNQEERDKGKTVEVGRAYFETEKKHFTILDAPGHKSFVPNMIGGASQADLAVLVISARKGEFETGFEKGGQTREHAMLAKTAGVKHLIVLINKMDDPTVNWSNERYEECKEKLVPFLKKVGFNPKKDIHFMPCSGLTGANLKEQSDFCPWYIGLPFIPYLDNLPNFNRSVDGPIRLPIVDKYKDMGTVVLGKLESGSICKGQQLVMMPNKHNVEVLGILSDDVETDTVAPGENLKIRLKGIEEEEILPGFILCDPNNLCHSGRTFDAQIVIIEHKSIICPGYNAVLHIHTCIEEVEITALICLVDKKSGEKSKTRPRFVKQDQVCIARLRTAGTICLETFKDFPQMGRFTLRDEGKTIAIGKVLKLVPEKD
# T3 sequence (Q96SW2 whole entry): as the sequence (Q96SW2 whole entry) above
# T3 sequence (Q16531 whole entry partner): as the sequence (Q16531 whole entry partner) above
# T2 sequence (Q9UKS7 whole entry): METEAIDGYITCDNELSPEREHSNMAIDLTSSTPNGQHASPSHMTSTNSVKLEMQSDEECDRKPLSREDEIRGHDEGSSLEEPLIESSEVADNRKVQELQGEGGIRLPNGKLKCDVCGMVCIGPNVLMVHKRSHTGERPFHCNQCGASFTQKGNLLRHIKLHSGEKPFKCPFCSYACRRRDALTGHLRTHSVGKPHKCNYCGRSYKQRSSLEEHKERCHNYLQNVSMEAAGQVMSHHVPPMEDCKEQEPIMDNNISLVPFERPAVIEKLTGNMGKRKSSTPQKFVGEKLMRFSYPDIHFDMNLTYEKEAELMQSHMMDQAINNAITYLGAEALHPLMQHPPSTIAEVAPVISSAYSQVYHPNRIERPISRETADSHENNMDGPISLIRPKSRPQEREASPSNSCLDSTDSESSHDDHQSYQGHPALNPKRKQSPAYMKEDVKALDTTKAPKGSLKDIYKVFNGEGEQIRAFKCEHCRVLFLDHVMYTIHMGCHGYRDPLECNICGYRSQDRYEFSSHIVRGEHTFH
# T2 sequence (Q96SW2 whole entry): as the sequence (Q96SW2 whole entry) above
# T2 sequence (Q16531 whole entry partner): as the sequence (Q16531 whole entry partner) above
# T5 sequence (Q9UKT9 whole entry): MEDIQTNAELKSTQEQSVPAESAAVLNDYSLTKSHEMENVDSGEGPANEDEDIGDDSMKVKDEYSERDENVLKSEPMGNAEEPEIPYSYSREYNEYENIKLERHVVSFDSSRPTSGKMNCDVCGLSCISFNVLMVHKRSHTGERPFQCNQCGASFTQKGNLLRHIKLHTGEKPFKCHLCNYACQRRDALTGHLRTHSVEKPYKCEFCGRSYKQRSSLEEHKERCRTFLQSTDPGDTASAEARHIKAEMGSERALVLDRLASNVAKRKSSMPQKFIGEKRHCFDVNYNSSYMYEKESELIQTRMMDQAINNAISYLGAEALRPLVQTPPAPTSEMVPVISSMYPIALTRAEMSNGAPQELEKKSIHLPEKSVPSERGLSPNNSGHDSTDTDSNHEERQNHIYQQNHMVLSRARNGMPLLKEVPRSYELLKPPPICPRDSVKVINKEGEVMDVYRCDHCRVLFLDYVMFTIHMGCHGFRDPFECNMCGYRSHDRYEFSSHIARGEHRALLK
# T5 sequence (Q96SW2 whole entry): as the sequence (Q96SW2 whole entry) above
# T5 sequence (Q16531 whole entry partner): as the sequence (Q16531 whole entry partner) above
# T4 sequence (P48729 whole entry): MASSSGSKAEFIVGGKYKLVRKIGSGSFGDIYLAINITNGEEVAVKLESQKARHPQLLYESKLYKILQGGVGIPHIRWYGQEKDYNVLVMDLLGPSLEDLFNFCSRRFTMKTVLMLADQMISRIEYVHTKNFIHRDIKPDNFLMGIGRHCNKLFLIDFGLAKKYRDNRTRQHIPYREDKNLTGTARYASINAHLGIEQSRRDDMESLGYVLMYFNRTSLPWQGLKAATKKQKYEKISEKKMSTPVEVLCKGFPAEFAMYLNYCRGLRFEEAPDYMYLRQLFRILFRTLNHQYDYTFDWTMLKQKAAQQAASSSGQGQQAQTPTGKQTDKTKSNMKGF
# T4 sequence (Q96SW2 whole entry): as the sequence (Q96SW2 whole entry) above
# T4 sequence (Q16531 whole entry partner): as the sequence (Q16531 whole entry partner) above
Compound,IKZF 1 substrate protein remaining % (IKZF1; [1]),IKZF2 substrate protein remaining % (IKZF2; [1]),GSPT1 substrate protein remaining % (GSPT1; [1]),CK1a substrate protein remaining % (CK1α; [1]),IKZF3 substrate protein remaining % (IKZF3; [1]),Weel substrate protein remaining % (WEE1; [1]),IKZF 1 substrate protein remaining % (IKZF1; [2]),IKZF2 substrate protein remaining % (IKZF2; [2]),GSPT1 substrate protein remaining % (GSPT1; [2]),CK1a substrate protein remaining % (CK1α; [2]),IKZF3 substrate protein remaining % (IKZF3; [2]),Weel substrate protein remaining % (WEE1; [2])
"Cc1ccc(N2CCN(Cc3ccc4c(c3)C(=O)N(C3CCC(=O)NC3=O)C4=O)CC2)c(C)c1 (stereo not drawn) [GT-06366, 5-((4-(2,4-dimethylphenyl)piperazin-1-yl)methyl)-2-(2,6-dioxopiperidin-3-yl)isoindoline-1,3-dione]",B (80%< substrate protein remaining %≤ 100%),A (0% ≤ substrate protein remaining % ≤ 80%),A (0% ≤ substrate protein remaining % ≤ 80%),B (80%< substrate protein remaining %≤ 100%),A (0% ≤ substrate protein remaining % ≤ 80%),B (80%< substrate protein remaining %≤ 100%),,,,,,
"O=C1CCC(N2C(=O)c3ccc(CN4CCN(c5ncnc6sc(-c7ccccc7)cc56)CC4)cc3C2=O)C(=O)N1 (stereo not drawn) [GT-06310, 2-(2,6-dioxopiperidin-3-yl)-5-((4-(6-phenylthieno[2,3-d]pyrimidin-4-yl)piperazin-1-yl)methyl)isoindoline-1,3-dione]",B (80%< substrate protein remaining %≤ 100%),A (0% ≤ substrate protein remaining % ≤ 80%),A (0% ≤ substrate protein remaining % ≤ 80%),A (0% ≤ substrate protein remaining % ≤ 80%),A (0% ≤ substrate protein remaining % ≤ 80%),B (80%< substrate protein remaining %≤ 100%),,,,,,
"O=C1CCC(N2C(=O)c3ccc(CN4CC(c5ccnc6cc(F)ccc56)C4)cc3C2=O)C(=O)N1 (stereo not drawn) [GT-06270, 2-(2,6-dioxopiperidin-3-yl)-5-((3-(7-fluoroquinolin-4-yl)azetidin-1-yl)methyl)isoindoline-1,3-dione]",B (80%< substrate protein remaining %≤ 100%),B (80%< substrate protein remaining %≤ 100%),A (0% ≤ substrate protein remaining % ≤ 80%),B (80%< substrate protein remaining %≤ 100%),B (80%< substrate protein remaining %≤ 100%),B (80%< substrate protein remaining %≤ 100%),,,,,,
"O=C1CCC(N2C(=O)c3ccc(CN4CCC(c5cccc6cnccc56)CC4)cc3C2=O)C(=O)N1 (stereo not drawn) [GT-06266, 2-(2,6-dioxopiperidin-3-yl)-5-((4-(isoquinolin-5-yl)piperidin-1-yl)methyl)isoindoline-1,3-dione]",,,,,,,B (80%< substrate protein remaining %≤ 100%),A (0% ≤ substrate protein remaining % ≤ 80%),B (80%< substrate protein remaining %≤ 100%),B (80%< substrate protein remaining %≤ 100%),B (80%< substrate protein remaining %≤ 100%),B (80%< substrate protein remaining %≤ 100%)
"O=C1CCC(N2C(=O)c3ccc(CN4CCC(c5ccc(Br)cc5)CC4)cc3C2=O)C(=O)N1 (stereo not drawn) [GT-06370, 5-((4-(4-bromophenyl)piperidin-1-yl)methyl)-2-(2,6-dioxopiperidin-3-yl)isoindoline-1,3-dione]",B (80%< substrate protein remaining %≤ 100%),A (0% ≤ substrate protein remaining % ≤ 80%),A (0% ≤ substrate protein remaining % ≤ 80%),A (0% ≤ substrate protein remaining % ≤ 80%),A (0% ≤ substrate protein remaining % ≤ 80%),A (0% ≤ substrate protein remaining % ≤ 80%),,,,,,
"O=C1CCC(N2C(=O)c3ccc(CN4CCN(c5c(Cl)cccc5Cl)CC4)cc3C2=O)C(=O)N1 (stereo not drawn) [GT-06297, 5-((4-(2,6-dichlorophenyl)piperazin-1-yl)methyl)-2-(2,6-dioxopiperidin-3-yl)isoindoline-1,3-dione]",B (80%< substrate protein remaining %≤ 100%),B (80%< substrate protein remaining %≤ 100%),A (0% ≤ substrate protein remaining % ≤ 80%),B (80%< substrate protein remaining %≤ 100%),B (80%< substrate protein remaining %≤ 100%),B (80%< substrate protein remaining %≤ 100%),,,,,,
"COc1ccccc1N1CCN(Cc2ccc3c(c2)C(=O)N(C2CCC(=O)NC2=O)C3=O)CC1 (stereo not drawn) [GT-06287, 2-(2,6-dioxopiperidin-3-yl)-5-((4-(2-methoxyphenyl)piperazin-1-yl)methyl)isoindoline-1,3-dione]",B (80%< substrate protein remaining %≤ 100%),B (80%< substrate protein remaining %≤ 100%),A (0% ≤ substrate protein remaining % ≤ 80%),B (80%< substrate protein remaining %≤ 100%),B (80%< substrate protein remaining %≤ 100%),B (80%< substrate protein remaining %≤ 100%),,,,,,
"O=C1CCC(N2C(=O)c3ccc(CN4CCC(c5ccc(F)cc5)CC4)cc3C2=O)C(=O)N1 (stereo not drawn) [GT-06374, 2-(2,6-dioxopiperidin-3-yl)-5-((4-(4-fluorophenyl)piperidin-1-yl)methyl)isoindoline-1,3-dione]",A (0% ≤ substrate protein remaining % ≤ 80%),A (0% ≤ substrate protein remaining % ≤ 80%),A (0% ≤ substrate protein remaining % ≤ 80%),B (80%< substrate protein remaining %≤ 100%),B (80%< substrate protein remaining %≤ 100%),A (0% ≤ substrate protein remaining % ≤ 80%),,,,,,
"O=C1CCC(N2C(=O)c3ccc(CN4CCC(c5ccnc6cc(F)ccc56)CC4)cc3C2=O)C(=O)N1 (stereo not drawn) [GT-06265, 2-(2,6-dioxopiperidin-3-yl)-5-((4-(7-fluoroquinolin-4-yl)piperidin-1-yl)methyl)isoindoline-1,3-dione]",,,,,,,B (80%< substrate protein remaining %≤ 100%),A (0% ≤ substrate protein remaining % ≤ 80%),B (80%< substrate protein remaining %≤ 100%),B (80%< substrate protein remaining %≤ 100%),B (80%< substrate protein remaining %≤ 100%),B (80%< substrate protein remaining %≤ 100%)
"O=C1CCC(N2C(=O)c3ccc(CN4CCN(c5c[nH]c6ncccc56)CC4)cc3C2=O)C(=O)N1 (stereo not drawn) [GT-06707, 5-((4-(1H-pyrrolo[2,3-b]pyridin-3-yl)piperazin-1-yl)methyl)-2-(2,6-dioxopiperidin-3-yl)isoindoline-1,3-dione]",B (80%< substrate protein remaining %≤ 100%),B (80%< substrate protein remaining %≤ 100%),A (0% ≤ substrate protein remaining % ≤ 80%),A (0% ≤ substrate protein remaining % ≤ 80%),A (0% ≤ substrate protein remaining % ≤ 80%),A (0% ≤ substrate protein remaining % ≤ 80%),,,,,,
"O=C1CCC(N2C(=O)c3ccc(CN4CCC(c5ncnc6sccc56)CC4)cc3C2=O)C(=O)N1 (stereo not drawn) [GT-06591, 2-(2,6-dioxopiperidin-3-yl)-5-((4-(thieno[2,3-d]pyrimidin-4-yl)piperidin-1-yl)methyl)isoindoline-1,3-dione]",B (80%< substrate protein remaining %≤ 100%),B (80%< substrate protein remaining %≤ 100%),A (0% ≤ substrate protein remaining % ≤ 80%),B (80%< substrate protein remaining %≤ 100%),B (80%< substrate protein remaining %≤ 100%),A (0% ≤ substrate protein remaining % ≤ 80%),,,,,,
"O=C1CCC(N2C(=O)c3ccc(CN4C5CC4CN(c4cccc(Cl)c4Cl)C5)cc3C2=O)C(=O)N1 (stereo not drawn) [GT-06688, 5-((3-(2,3-dichlorophenyl)-3,6-diazabicyclo[3.1.1]heptan-6-yl)methyl)-2-(2,6-dioxopiperidin-3-yl)isoindoline-1,3-dione]",B (80%< substrate protein remaining %≤ 100%),B (80%< substrate protein remaining %≤ 100%),A (0% ≤ substrate protein remaining % ≤ 80%),B (80%< substrate protein remaining %≤ 100%),B (80%< substrate protein remaining %≤ 100%),B (80%< substrate protein remaining %≤ 100%),,,,,,
"O=C1CCC(N2C(=O)c3ccc(CN4CCN(c5ccc(F)cc5)CC4)cc3C2=O)C(=O)N1 (stereo not drawn) [GT-06292, 2-(2,6-dioxopiperidin-3-yl)-5-((4-(4-fluorophenyl)piperazin-1-yl)methyl)isoindoline-1,3-dione]",B (80%< substrate protein remaining %≤ 100%),B (80%< substrate protein remaining %≤ 100%),A (0% ≤ substrate protein remaining % ≤ 80%),B (80%< substrate protein remaining %≤ 100%),B (80%< substrate protein remaining %≤ 100%),B (80%< substrate protein remaining %≤ 100%),,,,,,
